Patent US20230339886A1 (University of Florida Research Foundation, Incorporated, priority 2020, published 2023)
pEC50: −log10 of the molar value.

Target: T1, REV-ERBα LBD (human; residues 281-614 Δ324-422) (Homo sapiens, UniProt P20393, DEL324-422)
T1 construct: 6×Histag-REV-ERBα LBD (human; residues 281-614 Δ324-422); made in house; host or cells: Escherichia coli
Assay: TR-FRET corepressor interaction assay (REV-ERBα LBD, FITC-SMRT peptide)
Format: biochemical
Details: Table 2, read-out: REVERBα agonism (EC50 class, FRET assay)
Summary of the method: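 Compound serial dilutions (in DMSO, triplicate) incubated 2 h at 4 °C; Tb donor excited at 340 nm, emission read at 495 nm and FITC acceptor at 520 nm. TR-FRET ratio (520/495 nm) plotted against ligand concentration and fitted to a sigmoidal dose-response curve.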

T1 sequence (P20393 with tags, fused parts or gaps DEL324-422): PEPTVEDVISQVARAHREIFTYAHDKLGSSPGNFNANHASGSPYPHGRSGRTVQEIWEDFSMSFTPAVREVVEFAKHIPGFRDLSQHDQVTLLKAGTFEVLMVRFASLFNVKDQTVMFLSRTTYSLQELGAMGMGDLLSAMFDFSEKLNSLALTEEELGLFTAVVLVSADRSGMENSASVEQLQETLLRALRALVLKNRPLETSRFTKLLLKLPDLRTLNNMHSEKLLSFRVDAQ
T1 sequence (Q9Y618 2335-2356 partner limits assumed): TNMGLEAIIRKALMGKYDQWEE

pEC50 | SMILES
5.52 to 6.30 | CN(C)S(=O)(=O)NCCc1cn(Cc2ccncc2)c2cc(Br)ccc12 [Example 162, [(2-{6-bromo-1-[(pyridin-4-yl)methyl]-1H-indol-3-yl}ethyl)sulfamoyl]dimethylamine]
5.52 to 6.30 | CN(C)S(=O)(=O)NCCc1cn(Cc2cccnc2)c2cc(Br)ccc12 [Example 163, [(2-{6-bromo-1-[(pyridin-3-yl)methyl]-1H-indol-3-yl}ethyl)sulfamoyl]dimethylamine]
< 5.52 | COC(=O)Cn1cc(CCNS(=O)(=O)N(C)C)c2ccc(Br)cc21 [Example 164, methyl 2-(6-bromo-3-(2-((N,N-dimethylsulfamoyl)amino)ethyl)-1H-indol-1-yl)acetate]
5.52 to 6.30 | CN(C)S(=O)(=O)NCCc1cn(CC(C)(C)C)c2cc(Br)ccc12 [Example 165, ({2-[6-bromo-1-(2,2-dimethylpropyl)-1H-indol-3-yl]ethyl}sulfamoyl)dimethylamine]
5.52 to 6.30 | CNC(=O)Cn1cc(CCNS(=O)(=O)N(C)C)c2ccc(Br)cc21 [Example 166, 2-(6-bromo-3-(2-((N,N-dimethylsulfamoyl)amino)ethyl)-1H-indol-1-yl)-N-methylacetamide]
5.52 to 6.30 | CN(C)C(=O)Cn1cc(CCNS(=O)(=O)N(C)C)c2ccc(Br)cc21 [Example 167, 2-(6-bromo-3-(2-((N,N-dimethylsulfamoyl)amino)ethyl)-1H-indol-1-yl)-N,N-dimethylacetamide]
> 6.30 | CC(C)Cn1cc(CCNS(=O)(=O)N(C)C)c2cc(F)c(Br)cc21 [Example 168, ({2-[6-bromo-5-fluoro-1-(2-methylpropyl)-1H-indol-3-yl]ethyl}sulfamoyl)dimethylamine]
5.52 to 6.30 | Cc1cccc2c(CCNS(=O)(=O)N(C)C)cn(CC(C)C)c12 [Example 169, dimethyl({2-[7-methyl-1-(2-methylpropyl)-1H-indol-3-yl]ethyl}sulfamoyl)amine]
> 6.30 | Cc1cc2c(cc1F)c(CCNS(=O)(=O)N(C)C)cn2CC(C)C [Example 170, ({2-[5-fluoro-6-methyl-1-(2-methylpropyl)-1H-indol-3-yl]ethyl}sulfamoyl)dimethylamine]
5.52 to 6.30 | CC(C)S(=O)(=O)NCCn1cc(CC(C)(C)C)c2cc(Br)ccc21 [Example 171, N-(2-(5-bromo-3-neopentyl-1H-indol-1-yl)ethyl)propane-2-sulfonamide]
5.52 to 6.30 | CN(C)S(=O)(=O)NCCn1cc(CCC(F)(F)F)c2cc(Br)ccc21 [Example 172, N-{2-[5-bromo-3-(3,3,3-trifluoropropyl)-1H-indol-1-yl]ethyl}-N,N-dimethylsulfuric diamide]
5.52 to 6.30 | CC(C)Cc1cn(CCS(=O)(=O)C(C)C)c2ccc(Br)cc12 [Example 173, 5-bromo-3-isobutyl-1-(2-(isopropylsulfonyl)ethyl)-1H-indole]
5.52 to 6.30 | CC(C)Cc1cn(CCS(=O)(=O)C(C)(C)C)c2ccc(Br)cc12 [Example 174, 5-bromo-1-(2-(tert-butylsulfonyl)ethyl)-3-isobutyl-1H-indole]
< 5.52 | CC(C)S(=O)(=O)CCn1cc(CC(C)(C)C)c2cc(Br)ccc21 [Example 175, 5-bromo-1-(2-(isopropylsulfonyl)ethyl)-3-neopentyl-1H-indole]
> 6.30 | CC(C)Cn1cc(CCNS(=O)(=O)N(C)C)c2cc(F)c(-c3ccncc3)cc21 [Example 176, ({2-[5-fluoro-1-(2-methylpropyl)-6-(pyridin-4-yl)-1H-indol-3-yl]ethyl}sulfamoyl)dimethylamine]
5.52 to 6.30 | CC(C)Cn1cc(C(C)(C)CNS(=O)(=O)N(C)C)c2ccc(-c3ccncc3)cc21 [Example 177, dimethyl({2-methyl-2-[1-(2-methylpropyl)-6-(pyridin-4-yl)-1H-indol-3-yl]propyl}sulfamoyl)amine]
> 6.30 | CC(C)Cn1cc(C2(CNS(=O)(=O)N(C)C)CC2)c2ccc(-c3ccncc3)cc21 [Example 178, dimethyl[({1-[1-(2-methylpropyl)-6-(pyridin-4-yl)-1H-indol-3-yl]cyclopropyl}methyl)sulfamoyl]amine]
> 6.30 | CN(C)S(=O)(=O)NCCc1cn(CCC(F)(F)F)c2cc(-c3ccncc3)ccc12 [Example 179, dimethyl({2-[6-(pyridin-4-yl)-1-(3,3,3-trifluoropropyl)-1H-indol-3-yl]ethyl}sulfamoyl)amine]
5.52 to 6.30 | CC(C)C(=O)n1cc(CNS(=O)(=O)N(C)C)c2ccc(-c3ccncc3)cc21 [Example 182, 1-(3-{[(dimethylsulfamoyl)amino]methyl}-6-(pyridin-4-yl)-1H-indol-1-yl)-2-methylpropan-1-one]
5.52 to 6.30 | CC(C)C(=O)n1cc(CNS(=O)(=O)N(C)C)c2ccc(-c3ccccc3Cl)cc21 [Example 183]
< 5.52 | CC(C)C(=O)n1cc(CNS(=O)(=O)N(C)C)c2ccc(-c3ccnn3C)cc21 [Example 184, 1-(3-{[(dimethylsulfamoyl)amino]methyl}-6-(1-methyl-1H-pyrazol-5-yl)-1H-indol-1-yl)-2-methylpropan-1-one]

Second part, the molecule before the results:

SMILES | pEC50
CN(C)S(=O)(=O)NCCc1cn(Cc2cccc(Cl)c2)c2cc(-c3ccncc3)ccc12 [Example 141, N-{2-[6-(pyridin-4-yl)-1-(3-chlorobenzyl)-1H-indol-3-yl]ethyl}-N,N-dimethylsulfuric diamide] | > 6.30
CN(C)S(=O)(=O)NCCc1cn(Cc2cccc(C(F)(F)F)c2)c2cc(-c3ccncc3)ccc12 [Example 142, N-{2-[6-(pyridin-4-yl)-1-(3-trifluoromethylbenzyl)-1H-indol-3-yl]ethyl}-N,N-dimethyl-sulfuric diamide] | 5.52 to 6.30
CN(C)S(=O)(=O)NCCc1cn(Cc2cccc(Br)c2)c2cc(-c3ccncc3)ccc12 [Example 143, N-{2-[6-(pyridin-4-yl)-1-(3-bromobenzyl)-1H-indol-3-yl]ethyl}-N,N-dimethylsulfuric diamide] | > 6.30
CN(C)S(=O)(=O)NCCc1cn(Cc2cccc(F)c2)c2cc(-c3ccncc3)ccc12 [Example 144, N-{2-[6-(pyridin-4-yl)-1-(3-fluorobenzyl)-1H-indol-3-yl]ethyl}-N,N-dimethylsulfuric diamide] | > 6.30
CN(C)S(=O)(=O)NCCc1cn(Cc2cccc(I)c2)c2cc(-c3ccncc3)ccc12 [Example 145, N-{2-[6-(pyridin-4-yl)-1-(3-iodobenzyl)-1H-indol-3-yl]ethyl}-N,N-dimethylsulfuric diamide] | < 5.52
CN(C)S(=O)(=O)NCCc1cn(Cc2ccc(F)cc2)c2cc(-c3ccncc3)ccc12 [Example 146, N-{2-[6-(pyridin-4-yl)-1-(4-fluorobenzyl)-1H-indol-3-yl]ethyl}-N,N-dimethylsulfuric diamide] | 5.52 to 6.30
COc1cccc(Cn2cc(CCNS(=O)(=O)N(C)C)c3ccc(-c4ccncc4)cc32)c1 [Example 147, N-{2-[6-(pyridin-4-yl)-1-(3-methoxybenzyl)-1H-indol-3-yl]ethyl}-N,N-dimethylsulfuric diamide] | 5.52 to 6.30
CN(C)S(=O)(=O)NCCc1cn(Cc2cccc([N+](=O)[O-])c2)c2cc(-c3ccncc3)ccc12 [Example 148, N-{2-[6-(pyridin-4-yl)-1-(3-nitrobenzyl)-1H-indol-3-yl]ethyl}-N,N-dimethylsulfuric diamide] | 5.52 to 6.30
CN(C)S(=O)(=O)NCCc1cn(Cc2ccc(F)cc2F)c2cc(-c3ccncc3)ccc12 [Example 149, N-{2-[6-(pyridin-4-yl)-1-(2,4-difluorobenzyl)-1H-indol-3-yl]ethyl}-N,N-dimethylsulfuric diamide] | 5.52 to 6.30
CN(C)S(=O)(=O)NCCc1cn(Cc2ccccc2F)c2cc(-c3ccncc3)ccc12 [Example 150, N-{2-[6-(pyridin-4-yl)-1-(2-fluorobenzyl)-1H-indol-3-yl]ethyl}-N,N-dimethylsulfuric diamide] | 5.52 to 6.30
CN(C)S(=O)(=O)NCCc1cn(C(=O)c2cc(Cl)cc(Cl)c2)c2cc(-c3ccncc3)ccc12 [Example 151, N′-{2-[6-(pyridin-4-yl)-1-(3,5-dichlorobenzoyl)-1H-indol-3-yl]ethyl}-N,N-dimethylsulfuric diamide] | < 5.52
CN(C)S(=O)(=O)NCCn1cc(CC(F)(F)F)c2cc(Cl)ccc21 [Example 152, N-{2-[5-chloro-3-(2,2,2-trifluoroethyl)-1H-indol-1-yl]ethyl}-N,N-dimethylsulfuric diamide] | 5.52 to 6.30
CN(C)S(=O)(=O)NCCn1cc(CC(F)(F)C(F)(F)F)c2cc(Cl)ccc21 [Example 153, N-{2-[5-chloro-3-(2,2,3,3,3-pentafluoropropyl)-1H-indol-1-yl]ethyl}-N,N-dimethylsulfuric diamide] | 5.52 to 6.30
CN(C)S(=O)(=O)NCCc1cn(CCc2ccccc2)c2cc(-c3ccncc3)ccc12 [Example 154, N′-{2-[6-(pyridin-4-yl)-1-phenethyl-1H-indol-3-yl]ethyl}-N,N-dimethylsulfuric diamide] | 5.52 to 6.30
CN(C)S(=O)(=O)NCCc1cn(CC(F)(F)F)c2cc(Br)ccc12 [Example 158, ({2-[6-bromo-1-(2,2,2-trifluoroethyl)-1H-indol-3-yl]ethyl}sulfamoyl)dimethylamine] | 5.52 to 6.30
CC(c1ccccc1)n1cc(CCNS(=O)(=O)N(C)C)c2ccc(Br)cc21 (stereo not drawn) [Example 159, ({2-[6-bromo-1-(1-phenylethyl)-1H-indol-3-yl]ethyl}sulfamoyl)dimethylamine] | 5.52 to 6.30
CN(C)CCn1cc(CCNS(=O)(=O)N(C)C)c2ccc(Br)cc21 [Example 160, [2-(6-bromo-3-{2-[(dimethylsulfamoyl)amino]ethyl}-1H-indol-1-yl)ethyl]dimethylamine] | < 5.52
CN(C)S(=O)(=O)NCCc1cn(Cc2ccccn2)c2cc(Br)ccc12 [Example 161, [(2-{6-bromo-1-[(pyridin-2-yl)methyl]-1H-indol-3-yl}ethyl)sulfamoyl]dimethylamine] | 5.52 to 6.30
